Measured values as given in ChEMBL document CHEMBL3885881, “DrugMatrix”.

Species on record: Rattus norvegicus
Assay: DrugMatrix - Regimen: Daily Repeat
Format: toxicity, organism-based, Sprague-Dawley
Parameters: regimen Daily Repeat, gender Male, age 6-8 weeks
Conditions: in vivo, po, route oral GAVAGE, […]; for ABSOLUTE BASOPHIL / ABSOLUTE EOSINOPHIL / ABSOLUTE LYMPHOCYTE / ABSOLUTE MONOCYTE / BASOPHIL / EOSINOPHIL / ERYTHROCYTE COUNT / HEMATOCRIT / HEMOGLOBIN / LEUKOCYTE COUNT / LYMPHOCYTE / MEAN CORPUSCULAR HEMOGLOBIN / MEAN CORPUSCULAR HEMOGLOBIN CONCENTRATION / MEAN CORPUSCULAR VOLUME / MONOCYTE / NEUTROPHIL / PLATELET COUNT: tissue Blood
[1] = 0 mg/kg, 72 h, dose level Control, time 3 day
[2] = 0 mg/kg, 72 h, tissue Plasma, dose level Control, time 3 day
[3] = 0 mg/kg, 120 h, dose level Control, time 5 day
[4] = 0 mg/kg, 120 h, tissue Plasma, dose level Control, time 5 day
[5] = 0 mg/kg, dose level Control, time 14 day
[6] = 0 mg/kg, tissue Plasma, dose level Control, time 14 day
[7] = 40 mg/kg, 72 h, dose level Low, time 3 day
[8] = 40 mg/kg, 72 h, tissue Plasma, dose level Low, time 3 day

For C=CCN [ALLYLAMINE], the ABSOLUTE BASOPHIL [1] was 50 cells/µL, the ABSOLUTE EOSINOPHIL [1] was 43.3 cells/µL and the ABSOLUTE LYMPHOCYTE [1] was 9670 cells/µL. The ABSOLUTE MONOCYTE [1] was 210 cells/µL, the BASOPHIL [1] was 0.4% and the EOSINOPHIL [1] was 0.37%. The “ERYTHROCYTE COUNT” value [1] was 6.82 x10E6/uL, the HEMATOCRIT [1] was 46.77% and the HEMOGLOBIN [1] was 14.53 G/DL. The “LEUKOCYTE COUNT” value [1] was 11.77 x10E3/uL, the LYMPHOCYTE [1] was 82.1% and the “MEAN CORPUSCULAR HEMOGLOBIN” value [1] was 21.33 pg. For the same compound, the “MEAN CORPUSCULAR HEMOGLOBIN CONCENTRATION” value [1] was 31.13 G/DL, the “MEAN CORPUSCULAR VOLUME” value [1] was 68.57 fL and the MONOCYTE [1] was 1.8%. For the same compound, the NEUTROPHIL [1] was 14.83%, the “PLATELET COUNT” value [1] was 1303.33 x10E3/uL and the “ALANINE AMINOTRANSFERASE” value [2] was 46.67 u/L. The ALBUMIN [2] was 4.17 G/DL, the “ALKALINE PHOSPHATASE” value [2] was 530 u/L and the “ASPARTATE AMINOTRANSFERASE” value [2] was 81.33 u/L. For the same compound, the “BLOOD UREA NITROGEN” value [2] was 17.67 mg/dL, the “CARBON DIOXIDE” value [2] was 41.67 mmol/L and the CHLORIDE [2] was 102 MEQ/L. The CHOLESTEROL [2] was 70.33 mg/dL, the “CREATINE PHOSPHOKINASE” value [2] was 372.67 u/L and the CREATININE [2] was 0.5 mg/dL. It also gave a GLUCOSE [2] of 184 mg/dL, an LIPASE [2] of 13.33 u/L and a PHOSPHORUS [2] of 10.2 mg/dL. For the same compound, the POTASSIUM [2] was 6.13 MEQ/L, the SODIUM [2] was 145 MEQ/L and the “TOTAL BILIRUBIN” value [2] was 0.43 mg/dL. The “TOTAL PROTEIN” value [2] was 6.7 G/DL, the “URIC ACID” value [2] was 0.83 mg/dL and the ABSOLUTE BASOPHIL [3] was 33.3 cells/µL. For the same compound, the ABSOLUTE EOSINOPHIL [3] was 56.7 cells/µL, the ABSOLUTE LYMPHOCYTE [3] was 9220 cells/µL and the ABSOLUTE MONOCYTE [3] was 230 cells/µL. The BASOPHIL [3] was 0.3%, the EOSINOPHIL [3] was 0.5% and the “ERYTHROCYTE COUNT” value [3] was 6.62 x10E6/uL. The HEMATOCRIT [3] was 46.43%, the HEMOGLOBIN [3] was 14.3 G/DL and the “LEUKOCYTE COUNT” value [3] was 10.96 x10E3/uL. The LYMPHOCYTE [3] was 83.83%, the “MEAN CORPUSCULAR HEMOGLOBIN” value [3] was 21.57 pg and the “MEAN CORPUSCULAR HEMOGLOBIN CONCENTRATION” value [3] was 30.77 G/DL. The “MEAN CORPUSCULAR VOLUME” value [3] was 70.13 fL, the MONOCYTE [3] was 2.1% and the NEUTROPHIL [3] was 12.53%. The “PLATELET COUNT” value [3] was 1056.67 x10E3/uL, the “ALANINE AMINOTRANSFERASE” value [4] was 41.33 u/L and the ALBUMIN [4] was 4.07 G/DL. The “ALKALINE PHOSPHATASE” value [4] was 603.33 u/L, the “ASPARTATE AMINOTRANSFERASE” value [4] was 80 u/L and the “BLOOD UREA NITROGEN” value [4] was 14.67 mg/dL. The “CARBON DIOXIDE” value [4] was 43 mmol/L, the CHLORIDE [4] was 104 MEQ/L and the CHOLESTEROL [4] was 88.33 mg/dL. For the same compound, the “CREATINE PHOSPHOKINASE” value [4] was 391.67 u/L, the CREATININE [4] was 0.47 mg/dL and the GLUCOSE [4] was 156 mg/dL. It also gave an LIPASE [4] of 10.67 u/L, a PHOSPHORUS [4] of 9.03 mg/dL and a POTASSIUM [4] of 6.1 MEQ/L. For the same compound, the SODIUM [4] was 145.67 MEQ/L, the “TOTAL BILIRUBIN” value [4] was 0.37 mg/dL and the “TOTAL PROTEIN” value [4] was 6.53 G/DL. For the same compound, the “URIC ACID” value [4] was 0.5 mg/dL, the ABSOLUTE BASOPHIL [5] was 73.3 cells/µL and the ABSOLUTE EOSINOPHIL [5] was 60 cells/µL. It also gave an ABSOLUTE LYMPHOCYTE [5] of 12200 cells/µL, an ABSOLUTE MONOCYTE [5] of 250 cells/µL and a BASOPHIL [5] of 0.5%. The EOSINOPHIL [5] was 0.37%, the “ERYTHROCYTE COUNT” value [5] was 7.33 x10E6/uL and the HEMATOCRIT [5] was 44.3%. The HEMOGLOBIN [5] was 14.77 G/DL, the “LEUKOCYTE COUNT” value [5] was 14.86 x10E3/uL and the LYMPHOCYTE [5] was 81.87%. The “MEAN CORPUSCULAR HEMOGLOBIN” value [5] was 20.2 pg, the “MEAN CORPUSCULAR HEMOGLOBIN CONCENTRATION” value [5] was 33.33 G/DL and the “MEAN CORPUSCULAR VOLUME” value [5] was 60.57 fL. The MONOCYTE [5] was 1.63%, the NEUTROPHIL [5] was 14.93% and the “PLATELET COUNT” value [5] was 1101.67 x10E3/uL. For the same compound, the “ALANINE AMINOTRANSFERASE” value [6] was 31.67 u/L, the ALBUMIN [6] was 3.83 G/DL and the “ALKALINE PHOSPHATASE” value [6] was 430.67 u/L. The “ASPARTATE AMINOTRANSFERASE” value [6] was 87 u/L, the “BLOOD UREA NITROGEN” value [6] was 14.33 mg/dL and the “CARBON DIOXIDE” value [6] was 39 mmol/L. For the same compound, the CHLORIDE [6] was 104 MEQ/L, the CHOLESTEROL [6] was 66 mg/dL and the “CREATINE PHOSPHOKINASE” value [6] was 441.67 u/L. For the same compound, the CREATININE [6] was 0.7 mg/dL, the GLUCOSE [6] was 125.67 mg/dL and the “LACTATE DEHYDROGENASE” value [6] was 397.67 u/L. For the same compound, the LIPASE [6] was 12.33 u/L, the PHOSPHORUS [6] was 9.87 mg/dL and the POTASSIUM [6] was 5.93 MEQ/L. For the same compound, the SODIUM [6] was 145 MEQ/L, the “TOTAL BILIRUBIN” value [6] was 0.37 mg/dL and the “TOTAL PROTEIN” value [6] was 6.27 G/DL. The “URIC ACID” value [6] was 0.67 mg/dL, the ABSOLUTE BASOPHIL [7] was 40 cells/µL and the ABSOLUTE EOSINOPHIL [7] was 60 cells/µL. The ABSOLUTE LYMPHOCYTE [7] was 9180 cells/µL, the ABSOLUTE MONOCYTE [7] was 300 cells/µL and the BASOPHIL [7] was 0.33%. The EOSINOPHIL [7] was 0.53%, the “ERYTHROCYTE COUNT” value [7] was 7.09 x10E6/uL and the HEMATOCRIT [7] was 45.93%. For the same compound, the HEMOGLOBIN [7] was 14.27 G/DL, the “LEUKOCYTE COUNT” value [7] was 11.66 x10E3/uL and the LYMPHOCYTE [7] was 78.7%. For the same compound, the “MEAN CORPUSCULAR HEMOGLOBIN” value [7] was 20.07 pg, the “MEAN CORPUSCULAR HEMOGLOBIN CONCENTRATION” value [7] was 31 G/DL and the “MEAN CORPUSCULAR VOLUME” value [7] was 64.77 fL. The MONOCYTE [7] was 2.47%, the NEUTROPHIL [7] was 17.23% and the “PLATELET COUNT” value [7] was 1151.67 x10E3/uL. For the same compound, the “ALANINE AMINOTRANSFERASE” value [8] was 38 u/L, the ALBUMIN [8] was 3.8 G/DL and the “ALKALINE PHOSPHATASE” value [8] was 546.67 u/L. The “ASPARTATE AMINOTRANSFERASE” value [8] was 81.67 u/L, the “BLOOD UREA NITROGEN” value [8] was 16.67 mg/dL and the “CARBON DIOXIDE” value [8] was 38.67 mmol/L. For the same compound, the CHLORIDE [8] was 105.67 MEQ/L, the CHOLESTEROL [8] was 70.67 mg/dL and the “CREATINE PHOSPHOKINASE” value [8] was 634.67 u/L. It also gave a CREATININE [8] of 0.6 mg/dL, a GLUCOSE [8] of 204.33 mg/dL and an LIPASE [8] of 283.33 u/L. It also gave a PHOSPHORUS [8] of 9.93 mg/dL, a POTASSIUM [8] of 6.43 MEQ/L and an SODIUM [8] of 146 MEQ/L.
